Experiments:
PARG = PARG (Homo sapiens, UniProt Q86W56); experiment: Biochemical assay (PARG, TFMU-ADPr substrate); details: PARG, TFMU-ADPr substrate
HCC1806 = experiment: Cell viability assay (CellTiter-Glo); assay type: cell-based, Human; details: Homo sapiens, HCC1806, 168 h, HCC1806, 7 days, CellTiter-Glo; read-out: IC50 (nM) in cell viability assay
PXR = molecular target: T1, PXR (Homo sapiens, UniProt O75469); experiment: PXR assay (DPX2 luciferase reporter cells); assay type: cell-based; details: 24 h; for PXR Activation @30 uM (% Ctrl): positive control rifampicin
T1 construct: host or cells: DPX2 (HepG2)
T1 sequence (O75469 1-434): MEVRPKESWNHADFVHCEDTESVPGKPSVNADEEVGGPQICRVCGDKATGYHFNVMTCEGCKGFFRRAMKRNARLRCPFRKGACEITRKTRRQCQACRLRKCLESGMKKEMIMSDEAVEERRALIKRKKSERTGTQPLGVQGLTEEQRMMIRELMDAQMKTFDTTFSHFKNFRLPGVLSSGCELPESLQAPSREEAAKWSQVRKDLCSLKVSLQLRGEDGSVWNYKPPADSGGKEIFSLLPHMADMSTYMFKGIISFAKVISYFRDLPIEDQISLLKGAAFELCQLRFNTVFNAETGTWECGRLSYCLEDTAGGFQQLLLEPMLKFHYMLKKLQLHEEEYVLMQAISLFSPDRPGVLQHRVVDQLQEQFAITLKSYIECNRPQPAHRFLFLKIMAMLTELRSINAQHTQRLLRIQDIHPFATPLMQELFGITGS
Experimental: 1) Information of Cell Line
DPX2 (HepG2 cells stably transfected with PXR and luciferase reporter) cells were purchased from Puracyp Inc (Carlsbad, CA).
2) Experimental Procedures a) Reagents and Consumables
The DPX2 cells were cultured in the growth medium containing 1000 fetal bovine serum. The DPX2 cells in a T-75 flask were cultured in the […] incubator at 37° C. with 950% relative humidity, and digested when the cells grew to cover 80-90% of the bottom of the flask.
The surface layer of the T-75 cultured cells was washed with 10 mL of PBS; PBS was pipetted; 3-5 mL of tryp sin was added; the cells were digested at 37° C. for 5 minutes or until the cells were digested to be suspended; and excessive medium containing fetal bovine serum was added to stop trypsinization. The cell suspension was transferred to a conical-bottomed centrifuge tube and centrifuged at 150 g rpm for 5 minutes at room temperature; the supernatant was carefully pipetted; and the cells were resuspended with the treatment medium, with the concentration adjusted to 3.2×10^5 cells/mL (incubation time: 24 hours, plate seeding density: […]). 25 μL of the cell suspension was added to each well of the 384-well cell culture plate.
The cell culture plate was placed and cultured for 24 h in the […] incubator with 9500 humidity at 37° C. c) Formulation of Compound
The stock solution of each of 1000× test compound, the positive control (rifampicin), and the negative control (propranolol) was prepared with DMSO. The final concentrations of the positive control (rifampicin) were 1 μM and 10 μM, and the final concentration of the negative control (propranolol) was 10 μM. The final concentrations of the test compound were 10 μM, 1 μM, 0.1 μM, or EC50 (30 μM, 10 μM, 3 μM, 1 μM, 0.3 μM, 0.1 μM). The final concentration of DMSO was 0.10. The cell culture plate was taken out from the incubator, and 25 nL of the stock solution of the positive control, negative control or test compound was directly added with Echo, each with three parallel concentrations. The cell culture plate was placed in the incubator and continued to be incubated for 24 h. Before starting the assay with the substrate, the cell morphology and the monolayer integrity were checked to ensure that the monolayer was of acceptable research quality. […]
d) Quantitative Detection with PXR Activation
After 24 hours of dosing, the culture could be quantitatively detected with PXR activation. The CellTiter-Fluor™ Cell Viability Assay Kit and One-Glo Luciferase reagent were equilibrated to room temperature. The GF-AFC substrate (10 μL) was added to the assay buffer (10 ml) to develop a 2× reagent, which was then diluted into a 1× reagent with 10 ml of PBS. The ONE-Glo Luciferase substrate was added to the ONE-Glo Luciferase assay buffer. The culture plate was taken out from the incubator; the medium was discarded; 1× of CellTiter-Fluor™ reagent was poured into the loading slot; 25 μL of reagent were added per well to the culture plate with a pipetting workstation; and the culture plate was then incubated in the incubator for 30 minutes. The cell culture plate was taken out from the incubator, and cooled slightly to room temperature; and the fluorescence value was determined with a fully automatic quantitative microplate reader, with the excitation light of 400 nm and the emission light of 505 nm. The ONE-Glo reagent was poured into the loading slot, with 25 μL per well, and the resulting mixture was gently mixed in the plate, and incubated at room temperature for 5 minutes to determine the luminescence value.

Chain of PARG (Q86W56 whole entry): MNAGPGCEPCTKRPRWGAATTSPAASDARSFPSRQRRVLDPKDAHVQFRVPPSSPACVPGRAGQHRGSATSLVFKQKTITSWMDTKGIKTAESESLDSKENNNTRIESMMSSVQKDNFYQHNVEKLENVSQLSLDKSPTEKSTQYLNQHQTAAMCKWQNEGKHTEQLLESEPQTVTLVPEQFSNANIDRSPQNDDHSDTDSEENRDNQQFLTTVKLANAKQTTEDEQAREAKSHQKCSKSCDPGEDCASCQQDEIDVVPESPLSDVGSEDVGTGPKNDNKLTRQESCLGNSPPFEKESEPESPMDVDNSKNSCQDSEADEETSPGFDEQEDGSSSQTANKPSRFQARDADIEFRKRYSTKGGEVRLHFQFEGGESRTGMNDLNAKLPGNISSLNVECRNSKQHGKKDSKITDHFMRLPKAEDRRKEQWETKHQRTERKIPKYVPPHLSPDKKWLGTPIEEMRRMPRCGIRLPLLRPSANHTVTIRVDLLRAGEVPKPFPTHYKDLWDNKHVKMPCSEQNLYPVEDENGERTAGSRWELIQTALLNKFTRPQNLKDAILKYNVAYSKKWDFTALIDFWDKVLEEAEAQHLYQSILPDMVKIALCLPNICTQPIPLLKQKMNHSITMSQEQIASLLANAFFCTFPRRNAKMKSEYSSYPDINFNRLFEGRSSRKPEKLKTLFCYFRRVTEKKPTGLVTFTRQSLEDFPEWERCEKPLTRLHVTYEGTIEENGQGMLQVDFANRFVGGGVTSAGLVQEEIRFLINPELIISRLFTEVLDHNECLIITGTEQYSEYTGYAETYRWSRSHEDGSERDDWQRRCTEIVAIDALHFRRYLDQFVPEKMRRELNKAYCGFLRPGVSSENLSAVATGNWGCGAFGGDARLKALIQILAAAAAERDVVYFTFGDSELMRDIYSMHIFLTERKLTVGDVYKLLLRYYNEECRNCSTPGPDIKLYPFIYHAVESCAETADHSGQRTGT

IC50 (PARG) [nM] | IC50 (HCC1806) [nM] | PXR Activation @30 uM (Fold) (PXR) | PXR Activation @30 uM (% Ctrl) (PXR) | Structure (SMILES)
0.35 | 24 | 3.2 | 22 | C[C@H]1CN(c2cc(S(=O)(=O)NC3(C)COC3)cn3c(-c4nnc(C(F)F)s4)ncc23)C[C@H](C)N1 [Example 179, 3-(5-(difluoromethyl)-1,3,4-thiadiazol-2-yl)-8-((3S,5S)-3,5-dimethylpiperazin-1-yl)-N-(3-methyloxetan-3-yl)imidazo[1,5-a]pyridine-6-sulfonamide]
0.36 | 5.76 | 2.4 | 15 | COC1(C(=O)N2CCN(c3cc(S(=O)(=O)NC4(C)CC4)cn4c(-c5nnc(C(F)(F)F)s5)ncc34)CC2)CC1 [Example 193, 8-(4-(1-methoxycyclopropane-1-carbonyl)piperazin-1-yl)-N-(1-methylcyclopropyl)-3-(5-(trifluoromethyl)-1,3,4-thiadiazol-2-yl)imidazo[1,5-a]pyridine-6-sulfonamide]
11.5 | 700 | 1.6 | 12 | N#CC1(NS(=O)(=O)c2cc(N3CCN(C(=O)c4ccncc4)CC3)c3cnc(-c4nnc(C(F)(F)F)s4)n3c2)CC1 [Example 254, N-(1-cyanocyclopropyl)-8-(4-isonicotinoylpiperazin-1-yl)-3-(5-(trifluoromethyl)-1,3,4-thiadiazol-2-yl)imidazo[1,5-a]pyridine-6-sulfonamide]
16.6 | 310 | 1.1 | 7 | CC1(NS(=O)(=O)c2cc(N3CCN(C(=O)[C@@H]4CCN4)CC3)c3cnc(-c4nnc(C(F)(F)F)s4)n3c2)CC1 [Example 284, (S)-8-(4-(azetidine-2-carbonyl)piperazin-1-yl)-N-(1-methylcyclopropyl)-3-(5-(trifluoromethyl)-1,3,4-thiadiazol-2-yl)imidazo[1,5-a]pyridine-6-sulfonamide]
20 | 246 | 1.7 | 10 | CN1CC[C@H]1C(=O)N1CCN(c2cc(S(=O)(=O)NC3(C)CC3)cn3c(-c4nnc(C(F)(F)F)s4)ncc23)CC1 [Example 285, (S)-8-(4-(1-methylazetidine-2-carbonyl)piperazin-1-yl)-N-(1-methylcyclopropyl)-3-(5-(trifluoromethyl)-1,3,4-thiadiazol-2-yl)imidazo[1,5-a]pyridine-6-sulfonamide]
4.37 | 137 | 1.6 | 15 | CN1CC[C@@H]1C(=O)N1CCN(c2cc(S(=O)(=O)NC3(C)CC3)cn3c(-c4nnc(C(F)(F)F)s4)ncc23)CC1 [Example 287, (R)-8-(4-(1-methylazetidine-2-carbonyl)piperazin-1-yl)-N-(1-methylcyclopropyl)-3-(5-(trifluoromethyl)-1,3,4-thiadiazol-2-yl)imidazo[1,5-a]pyridine-6-sulfonamide]
0.21 | 234 | 1.1 | 5 | COC1(C(=O)N2CCN(c3cc(S(=O)(=O)NC4(C)CC4)cn4c(-c5nnc(C(F)F)s5)ncc34)CC2)CNC1 [Example 311, 3-(5-(difluoromethyl)-1,3,4-thiadiazol-2-yl)-8-(4-(3-methoxyazetidine-3-carbonyl)piperazin-1-yl)-N-(1-methylcyclopropyl)imidazo[1,5-a]pyridine-6-sulfonamide]
4.29 | 205 | 1.8 | 14 | CC1(NS(=O)(=O)c2cc(N3CCN(C(=O)[C@H]4CCCN4)CC3)c3cnc(-c4nnc(C(F)(F)F)s4)n3c2)CC1 [Example 324, (R)-N-(1-methylcyclopropyl)-8-(4-prolylpiperazin-1-yl)-3-(5-(trifluoromethyl)-1,3,4-thiadiazol-2-yl)imidazo[1,5-a]pyridine-6-sulfonamide]
6.55 | 194 | 1.3 | 9 | CN1CCC1(C)C(=O)N1CCN(c2cc(S(=O)(=O)NC3(C)CC3)cn3c(-c4nnc(C(F)(F)F)s4)ncc23)CC1 (stereo not shown) [Example 330, 8-(4-(1,2-dimethylazetidine-2-carbonyl)piperazin-1-yl)-N-(1-methylcyclopropyl)-3-(5-(trifluoromethyl)-1,3,4-thiadiazol-2-yl)imidazo[1,5-a]pyridine-6-sulfonamide]
54.1 | 1080 | 0.3 | 2 | CC1(NS(=O)(=O)c2cc(N3CCN(c4ccc[nH]c4=O)CC3)c3cnc(-c4nnc(C(F)(F)F)s4)n3c2)CC1 [Example 336, N-(1-methylcyclopropyl)-8-(4-(2-oxo-1,2-dihydropyridin-3-yl)piperazin-1-yl)-3-(5-(trifluoromethyl)-1,3,4-thiadiazol-2-yl)imidazo[1,5-a]pyridine-6-sulfonamide]

— patent publication US20260258035A1, “FIVE-MEMBERED AND SIX-MEMBERED NITROGEN-CONTAINING COMPOUND, AND INTERMEDIATE, PREPARATION METHOD AND USE THEREOF” (HANGZHOU SYNRX THERAPEUTICS BIOMEDICAL TECHNOLOGY CO., LTD., priority 2022, published 2026)
